Activity calls are given as the source filed them. The rule behind the calls is not given here.
Tests used:
[1] = biological target: T1, Protein deacetylase HDAC6 (Homo sapiens, UniProt Q9UBN7); assay: Inhibition of recombinant human His-tagged HDAC6 expressed in baculovirus infected insect cells using Ac-Leu-Gly-Lys(Ac)-AMC as substrate measured after 30 mins by fluorescence assay
T1 sequence (Q9UBN7 whole entry): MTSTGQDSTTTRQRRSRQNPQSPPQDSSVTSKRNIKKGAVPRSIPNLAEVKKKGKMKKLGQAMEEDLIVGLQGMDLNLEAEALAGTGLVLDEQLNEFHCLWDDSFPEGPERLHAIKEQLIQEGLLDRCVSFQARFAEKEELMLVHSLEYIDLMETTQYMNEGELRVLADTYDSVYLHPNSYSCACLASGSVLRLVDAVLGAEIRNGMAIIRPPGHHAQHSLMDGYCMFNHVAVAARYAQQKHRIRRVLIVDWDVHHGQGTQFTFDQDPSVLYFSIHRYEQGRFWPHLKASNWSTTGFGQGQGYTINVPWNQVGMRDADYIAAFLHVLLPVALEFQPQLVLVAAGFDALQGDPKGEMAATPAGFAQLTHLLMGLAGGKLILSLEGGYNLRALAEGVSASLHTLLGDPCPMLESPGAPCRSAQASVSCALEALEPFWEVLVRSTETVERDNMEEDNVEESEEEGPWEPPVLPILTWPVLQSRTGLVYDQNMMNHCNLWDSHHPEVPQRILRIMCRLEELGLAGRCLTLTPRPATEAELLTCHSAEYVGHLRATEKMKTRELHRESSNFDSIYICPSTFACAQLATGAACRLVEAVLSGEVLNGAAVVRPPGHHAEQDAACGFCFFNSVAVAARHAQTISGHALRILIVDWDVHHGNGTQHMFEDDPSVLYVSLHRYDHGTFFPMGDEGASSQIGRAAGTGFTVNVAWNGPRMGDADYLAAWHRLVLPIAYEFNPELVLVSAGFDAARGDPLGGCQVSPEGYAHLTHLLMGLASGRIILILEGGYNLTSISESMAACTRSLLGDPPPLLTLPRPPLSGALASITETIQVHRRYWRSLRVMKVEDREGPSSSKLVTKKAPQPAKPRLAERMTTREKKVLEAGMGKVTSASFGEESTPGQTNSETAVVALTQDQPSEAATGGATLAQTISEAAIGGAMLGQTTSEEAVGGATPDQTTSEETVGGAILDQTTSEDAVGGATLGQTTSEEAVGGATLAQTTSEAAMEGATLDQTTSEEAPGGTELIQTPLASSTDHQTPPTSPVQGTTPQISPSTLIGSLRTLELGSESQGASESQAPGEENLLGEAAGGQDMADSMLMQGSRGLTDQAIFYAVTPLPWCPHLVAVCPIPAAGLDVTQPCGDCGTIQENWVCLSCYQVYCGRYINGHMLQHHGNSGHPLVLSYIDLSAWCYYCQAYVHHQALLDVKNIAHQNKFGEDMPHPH

MDA-MB-231 [2] = assay: Antiproliferative activity against human MDA-MB-231 cells measured after 24 hrs by MTT assay; type: functional, cell-based; conditions: MDA-MB-231, 24 h
Histone deacetylase 2 = Histone deacetylase 2 (Homo sapiens, UniProt Q92769); assay: Inhibition of human full-length C-terminal FLAG-tagged HDAC2 expressed in baculovirus infected Sf9 insect cells using Ac-Leu-Gly-Lys(Ac)-AMC as substrate measured after 30 mins by fluorescence assay; type: cell-based
Histone deacetylase 9 = Histone deacetylase 9 (Homo sapiens, UniProt Q9UKV0); assay: Inhibition of recombinant human full-length N-terminal GST-tagged HDAC9 (1 to 1069 residues) expressed in wheat germ expression system using Ac-Leu-Gly-Lys(Tfa)-AMC as substrate measured after 30 mins by fluorescence assay
[3] = biological target: T2, Polyamine deacetylase HDAC10 (Homo sapiens, UniProt Q969S8); assay: Inhibition of recombinant human C-terminal His-tagged HDAC10 expressed in baculovirus infected Sf9 insect cells using Ac-Arg-His-Lys(Ac)-Lys(Ac)-AMC as substrate measured after 30 mins by fluorescence assay
T2 sequence (Q969S8 whole entry): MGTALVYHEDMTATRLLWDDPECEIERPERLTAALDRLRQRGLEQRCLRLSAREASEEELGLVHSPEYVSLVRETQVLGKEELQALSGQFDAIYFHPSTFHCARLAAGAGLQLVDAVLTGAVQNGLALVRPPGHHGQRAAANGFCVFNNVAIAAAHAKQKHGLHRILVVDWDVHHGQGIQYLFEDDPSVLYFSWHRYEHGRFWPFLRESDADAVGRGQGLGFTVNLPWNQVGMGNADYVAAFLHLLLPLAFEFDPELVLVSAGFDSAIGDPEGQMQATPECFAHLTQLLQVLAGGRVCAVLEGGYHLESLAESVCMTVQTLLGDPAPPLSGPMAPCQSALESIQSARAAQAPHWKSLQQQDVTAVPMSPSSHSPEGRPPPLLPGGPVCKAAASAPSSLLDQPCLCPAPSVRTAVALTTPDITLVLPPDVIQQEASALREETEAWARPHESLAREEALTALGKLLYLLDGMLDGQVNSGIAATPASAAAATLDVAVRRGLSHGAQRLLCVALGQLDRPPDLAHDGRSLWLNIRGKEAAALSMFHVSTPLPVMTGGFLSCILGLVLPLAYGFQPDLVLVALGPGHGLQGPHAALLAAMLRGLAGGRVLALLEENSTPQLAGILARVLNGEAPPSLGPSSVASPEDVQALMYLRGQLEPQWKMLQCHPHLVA

MDA-MB-231 [4] = assay: Antiproliferative activity against human MDA-MB-231 cells measured after 48 hrs by MTT assay; type: functional, cell-based; conditions: MDA-MB-231, 48 h
[5] = biological target: T3, Protein deacetylase HDAC6 (Homo sapiens) (UniProt Q9UBN7); assay: Inhibition of HDAC6 in human MDA-MB-231 cells assessed as increase in HSP90 acetylation at 2.5 to 10 uM measured after 24 hrs by Western blot analysis; type: cell-based; conditions: dose 2.5-10 µM
T3 sequence (whole entry): T1 sequence (Q9UBN7 whole entry)

MDA-MB-231 [6] = assay: Induction of apoptosis in human MDA-MB-231 cells assessed as early apoptotic cells at 2.5 uM measured after 24 hrs by Annexin-V/propidium iodide staining based flow cytometry (reference value: 0.69 to 0.92%); type: functional
MDA-MB-231 [7] = assay: Induction of apoptosis in human MDA-MB-231 cells assessed as viable cells at 5 uM measured after 24 hrs by Annexin-V/propidium iodide staining based flow cytometry (reference value: 95.68 to 98.38%); type: functional; conditions: read-out: Activity
MDA-MB-231 [8] = assay: Induction of apoptosis in human MDA-MB-231 cells assessed as late apoptotic cells at 5 uM measured after 24 hrs by Annexin-V/propidium iodide staining based flow cytometry (reference value: 0.71 to 2.94%); type: functional
MDA-MB-231 [9] = assay: Induction of apoptosis in human MDA-MB-231 cells assessed as increase in cleaved caspase-3 expression at 2.5 to 10 uM measured after 24 hrs by Western blot analysis; type: functional, cell-based; conditions: dose 2.5-10 µM
MDA-MB-231 [10] = assay: Inhibition of cell migration in human MDA-MB-231 cells assessed as decrease in MMP2 expression at 2.5 to 10 uM measured after 24 hrs Western blot analysis; type: functional, cell-based; conditions: dose 2.5-10 µM
MDA-MB-231 [11] = assay: Induction of endoplasmic reticulum stress in human MDA-MB-231 cells assessed as increase in PERK expression at 2.5 to 10 uM measured after 24 hrs by DAPI staining based immunofluorescence assay; type: functional, cell-based; conditions: dose 2.5-10 µM

Histone deacetylase 9, sequence (Q9UKV0 whole entry, the tested form may be a part): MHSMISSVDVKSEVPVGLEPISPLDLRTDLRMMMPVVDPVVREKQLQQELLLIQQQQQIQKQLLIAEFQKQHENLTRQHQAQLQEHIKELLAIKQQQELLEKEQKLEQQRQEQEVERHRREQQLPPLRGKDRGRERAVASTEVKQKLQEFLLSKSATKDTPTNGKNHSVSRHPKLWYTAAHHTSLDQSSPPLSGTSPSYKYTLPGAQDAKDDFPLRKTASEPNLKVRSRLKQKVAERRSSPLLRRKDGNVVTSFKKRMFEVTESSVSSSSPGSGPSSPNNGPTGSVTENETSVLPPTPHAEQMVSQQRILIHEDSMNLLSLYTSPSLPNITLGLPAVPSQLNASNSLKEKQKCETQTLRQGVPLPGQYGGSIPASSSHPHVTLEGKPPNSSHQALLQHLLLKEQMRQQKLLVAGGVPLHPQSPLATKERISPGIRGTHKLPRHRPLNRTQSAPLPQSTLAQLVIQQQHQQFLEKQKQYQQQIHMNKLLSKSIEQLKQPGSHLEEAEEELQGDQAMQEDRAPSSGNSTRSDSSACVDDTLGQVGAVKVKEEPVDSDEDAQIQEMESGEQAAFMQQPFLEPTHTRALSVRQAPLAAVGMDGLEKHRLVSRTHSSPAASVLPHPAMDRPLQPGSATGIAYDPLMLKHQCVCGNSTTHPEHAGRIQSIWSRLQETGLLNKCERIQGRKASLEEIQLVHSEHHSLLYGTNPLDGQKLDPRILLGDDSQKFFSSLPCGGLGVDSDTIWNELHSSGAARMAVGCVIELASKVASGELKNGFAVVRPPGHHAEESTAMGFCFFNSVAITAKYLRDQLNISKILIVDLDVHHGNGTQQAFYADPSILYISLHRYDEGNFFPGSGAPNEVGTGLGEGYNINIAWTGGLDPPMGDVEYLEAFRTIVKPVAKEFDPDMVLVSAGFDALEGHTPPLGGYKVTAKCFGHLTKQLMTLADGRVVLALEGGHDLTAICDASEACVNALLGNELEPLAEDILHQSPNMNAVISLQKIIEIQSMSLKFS
Histone deacetylase 2, sequence (Q92769 whole entry, the tested form may be a part): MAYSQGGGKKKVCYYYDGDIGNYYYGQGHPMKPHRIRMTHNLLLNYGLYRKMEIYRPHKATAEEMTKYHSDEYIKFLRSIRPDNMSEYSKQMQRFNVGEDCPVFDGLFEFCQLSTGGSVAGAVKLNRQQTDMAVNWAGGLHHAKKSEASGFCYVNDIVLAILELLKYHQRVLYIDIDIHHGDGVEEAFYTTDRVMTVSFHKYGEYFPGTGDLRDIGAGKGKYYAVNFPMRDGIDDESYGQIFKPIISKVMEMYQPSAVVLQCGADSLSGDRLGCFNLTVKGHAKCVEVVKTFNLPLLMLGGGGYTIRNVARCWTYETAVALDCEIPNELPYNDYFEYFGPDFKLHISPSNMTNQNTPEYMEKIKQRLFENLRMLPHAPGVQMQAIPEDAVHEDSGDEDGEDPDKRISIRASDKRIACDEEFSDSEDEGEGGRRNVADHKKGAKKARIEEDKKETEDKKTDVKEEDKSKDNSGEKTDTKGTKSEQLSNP

IC50 [1]: 55.3 nM
IC50 (MDA-MB-231 [2]): 2370 nM
IC50 (Histone deacetylase 2): 136 nM
IC50 (Histone deacetylase 9): > 1000 nM
IC50 [3]: 78.2 nM
IC50 (MDA-MB-231 [4]): 1520 nM
inhibition [5]: Active
SMILES: COc1cc(OC)c2c(N3CCS(=O)(=O)CC3)nc(-c3cc(C)c(OCCCCCC(=O)NO)c(C)c3)nc2c1
Activity (MDA-MB-231 [6]): 11.77%
viability at 5 µM (MDA-MB-231 [7]): 71.5%
Activity (MDA-MB-231 [8]): 11.79%
Activity (MDA-MB-231 [9]): Active
Activity (MDA-MB-231 [10]): Active
Activity (MDA-MB-231 [11]): Active

— ChEMBL document CHEMBL4765420, “Design, synthesis and biological evaluation of novel HDAC inhibitors with improved pharmacokinetic profile in breast cancer” (Eur J Med Chem, 2020)
